{"source": "paper PMC12048447", "about": "“PANTAX: a phase Ib clinical trial of the efflux pump inhibitor SCO-101 in combination with gemcitabine and nab-paclitaxel in non-resectable or metastatic pancreatic cancer” (Investigational New Drugs, 2025)", "key": {"[1]": {"system": "patients with metastatic PDAC", "parameters": "method as in PMID 24131140", "conditions": "MPACT phase III; cited from earlier work"}, "[2]": {"system": "PANC-1-Pac cells", "experiment": "MTT cell viability and ZIP synergy in paclitaxel-resistant PANC-1-Pac cells", "type": "cell-based, human", "conditions": "for ZIP synergy score with paclitaxel: PANC-1-Pac cells, score above 10 indicates synergy", "text": "(§1) A paclitaxel-sensitive human PDAC cell line, PANC-1, was obtained (ATCC, CRL-1469) and the derived paclitaxel-resistant PANC-1-Pac cell line was established by gradually increasing concentrations of paclitaxel over a period of 2–4 months. Standard MTT and crystal violet assays were applied to evaluate the effect of treatment with either combinations of SCO-101 and paclitaxel or SRPK1-inhibitor and paclitaxel. Details are presented in the Online Resource.\nStatistical analyses were mainly descriptive and included mean, median, range, and 95% CIs. Kaplan–Meier plots were constructed using Stata version 18 (StataCorp, 2023). In the preclinical study, the zero interaction potency (ZIP) synergy score was calculated as described by Yadav et al., to quantify the deviation from the expectation of zero interaction between drugs. A ZIP synergy score above 10 indicates synergy.\nas §1, with “line PANC-1” for “line, PANC-1,”, “2-4” for “2–4”, “SCO-101/paclitaxel” for “SCO-101 and paclitaxel”, “SRPK1 inhibitor/paclitaxel.” for “SRPK1-inhibitor and paclitaxel. Details are presented in the Online Resource.”\nThe selection began at 1 nM, increased to 2 nM and 4 nM, and ended at 8 nM. For each drug concentration the cells were kept for three passages. To evaluate the effect of the treatment either a Crystal Violet assay or MTT (3-(4,5-dimethylthiazol-2-yl)-2,5-diphenyltetrazolium bromide) assay were applied.\nThe MTT was conducted according to standard conditions. In short, cells were seeded at a density of 7,000 cells/well into a 96-well. One day after seeding, the cells were experimentally treated. Control conditions consisted of either growth medium (‘untreated’) or DMSO diluted in growth medium. All treatments were performed in triplicates. The cells were then kept in the CO2 incubator at 37 °C for 72 hours and plates were incubated with 100μl 1:10 MTT (0.5 mg/ml dissolved in phosphate buffered saline) for 3 hours and hereafter stopped using 100μl/well stop buffer (50g Sodium Dodecyl Sulphate, 245 mL MiliQ H2O, 5mL 1.0 N HCl was added to dissolve the formazan crystals overnight. Optical densities were measured at 570 and 670 nm.\nExperiments with 4 different concentrations of either SCO-101 or paclitaxel and their combinations were applied to test for synergy among these two compounds in both the PANC-1 parental and -Paclitaxel resistant cells. SCO-101 was applied in 10, 20, 40 and 50 µM whereas paclitaxel was tested in 5, 10, 15 and 20 nM for a total of 144 h, where drug was only present in the first 72h (sFig 2). The SRPK1 inhibitor SPHINX31 was tested at 0.1; 0.5; 1 and 5 µM. The SRPK1 inhibitor SRPIN was tested at 1; 5; 10 and 50 µM. Both inhibitors were tested in combination with 5, 10, 15 and 20 nM Paclitaxel.\nPANC-1-Pac cells treated with paclitaxel and SRPIN340 with four different concentrations of each for a total of 144 hours. Cell viability was evaluated by MTT assays and reported as percentage of untreated control (medium). Error bars indicate percentage standard deviation."}, "[3]": {"system": "PDAC patients", "parameters": "method as in PMID 16034525", "conditions": "clinical phase II study; cited from earlier work"}, "[4]": {"system": "PDAC patients", "parameters": "method as in PMID 20107864", "conditions": "phase II trial; cited from earlier work"}}}
{"smiles": "Nc1ccn([C@@H]2O[C@H](CO)[C@@H](O)C2(F)F)c(=O)n1", "note": "[Gem, gemcitabine]", "values": [{"measurement": "median overall survival (mOS)", "setting": "[1]", "result": 6.7, "unit": "months"}, {"measurement": "objective response rate (ORR)", "setting": "[1]", "result": 7, "unit": "%"}]}
{"smiles": "O=C(Nc1cc(C(F)(F)F)ccc1N1CCN(Cc2ccccn2)CC1)c1ccc(-c2ccncc2)o1", "note": "[SPHINX31]", "values": [{"measurement": "ZIP synergy score with paclitaxel", "setting": "[2]; SPHINX31 + paclitaxel for 144 h", "result": 57.037}]}
{"smiles": "O=C(Nc1cc(C(F)(F)F)ccc1N1CCCCC1)c1ccncc1", "note": "[SRPIN340]", "values": [{"measurement": "ZIP synergy score with paclitaxel", "setting": "[2]; SRPIN340 + paclitaxel, 72 h with drug + 72 h fresh media", "result": 21.4}]}
{"smiles": "Cc1ccc(-c2cc(C(F)(F)F)nn2-c2ccc(S(N)(=O)=O)cc2)cc1", "note": "[celecoxib]", "values": [{"measurement": "effect when combined with Gem and cisplatin", "setting": "[3]", "result": "no apparent effect"}]}
{"smiles": "O=c1c(-c2ccc(O)cc2)coc2cc(O)cc(O)c12", "note": "[genistein]", "values": [{"measurement": "effect when added to erlotinib and Gem", "setting": "[4]", "result": "no clear effect on survival"}]}
{"smiles": "CC(=O)O[C@H]1C(=O)[C@@]2(C)[C@H]([C@H](OC(=O)c3ccccc3)[C@]3(O)C[C@H](OC(=O)[C@H](O)[C@@H](NC(=O)c4ccccc4)c4ccccc4)C(C)=C1C3(C)C)[C@]1(OC(C)=O)CO[C@@H]1C[C@@H]2O", "note": "[paclitaxel]", "values": [{"measurement": "effect on PANC-1-Pac cells (cell viability), drug alone", "setting": "[2]; 72 h with drug + 72 h fresh media", "result": "dose-dependent effect"}, {"measurement": "resistant phenotype to paclitaxel relative to parental PANC-1 control cell line", "setting": "[2]; PANC-1-Pac vs PANC-1, MTT, 72 hours", "result": "five times higher"}]}
